Results: US10857127B2, “Vaginal delivery systems containing selective estrogen receptor modulator (SERM) and uses thereof” (Azure Biotech, Inc., priority 2016, dated 2020)
Structures can show the parent of a compound that is named as a salt.

What was measured:
[1] = Dissolution studies of Lasofoxifene in organic solvents and surfactants; type: physicochemical; settings: Lasofoxifene 1 mg/ml in the labelled solvent/surfactant; visual examination
[2] = as above; type: physicochemical; settings: visual examination; for Dissolution of Lasofoxifene in various organic solvents and surfactants, 2 mg/ml: Lasofoxifene 2 mg/ml in the labelled solvent/surfactant; for Dissolution of Lasofoxifene in various organic solvents and surfactants, 3 mg/ml: Lasofoxifene 3 mg/ml in the labelled solvent/surfactant
Method: The solubility of Lasofoxifene was investigated by screening various organic solvents and surfactants in increasing concentrations. The term “formulation” may refer to a pharmaceutical composition comprising […] pharmaceutically acceptable excipients.
First, 1 mg of Lasofoxifene was weighed into Eppendorf vessels and 500 μl of organic solvents and surfactants as listed in Table 20 were added. In cases of insufficient dissolution of the API, samples were treated with ultrasound for 30 min and, if necessary, heated to 50° C. while shaking (300 rpm). Afterwards, samples were examined visually regarding drug dissolution. In case of entire dissolution, the experiment was repeated with increasing drug concentrations until maximum dissolution was achieved. In addition, further organic solvents and surfactants were tested.

Row | Dissolution of Lasofoxifene in various organic solvents and surfactants, 1 mg/ml [1] | Dissolution of Lasofoxifene in various organic solvents and surfactants, 2 mg/ml [2] | Dissolution of Lasofoxifene in various organic solvents and surfactants, 3 mg/ml [2] | Dissolution of Lasofoxifene in various organic solvents and surfactants, 6 mg/ml ([2]; Lasofoxifene 6 mg/ml in the labelled solvent/surfactant) | Structure (SMILES)
1 | not dissolved | – | – | – | CCOC(=O)CC(CC(=O)OCC)(OC(C)=O)C(=O)OCC [Triethyl acetyl citrate (TEAC), Triethyl acetyl citrate]
2 | dissolved | dissolved | dissolved | – | CCOCCOCCO [Transcutol (TC), Diethylene glycol monoethyl ether]
3 | not dissolved | – | – | – | CCOC(=O)CC(O)(CC(=O)OCC)C(=O)OCC [Triethyl citrate (TEC), Triethyl citrate]

Further lines, the molecule ahead of its results:

Row | Structure (SMILES) | Dissolution of Lasofoxifene in various organic solvents and surfactants, 1 mg/ml [1] | Dissolution of Lasofoxifene in various organic solvents and surfactants, 2 mg/ml [2] | Dissolution of Lasofoxifene in various organic solvents and surfactants, 3 mg/ml [2] | Dissolution of Lasofoxifene in various organic solvents and surfactants, 6 mg/ml ([2]; Lasofoxifene 6 mg/ml in the labelled solvent/surfactant)
4 | CCCCOC(=O)CC(CC(=O)OCCCC)(OC(C)=O)C(=O)OCCCC [Tributyl acetyl citrate (TBAC), Tributyl acetyl citrate] | not dissolved | – | – | –
5 | OCC(O)CO [Glycerol 85%, Glycerol] | dissolved | partially | not dissolved | –
6 | CO[C@H]1CO[C@H]2[C@@H]1OC[C@H]2OC [Isosorbide dimethyl ether (DMI), Isosorbide dimethyl ether] | dissolved* | partially | not dissolved | –
7 | CC(O)CO (stereo not shown) [Propylene glycol (PG), Propylene glycol] | dissolved | dissolved* | partially | not dissolved
